According to ChEMBL document CHEMBL1149719, “Psammaplysin C: a new cytotoxic dibromotyrosine-derived metabolite from the marine sponge Druinella (= Psammaplysilla) purpurea” (J Nat Prod, 1992):
Converted amounts (≈) assume the structure as drawn.

Tested on: HCT-116
Assay: Cytotoxicity against human HCT116 cells
Type: functional, cell-based

Question: COC1=C(Br)C[C@]2(OC=C1Br)ON=C(C(=O)NCCCOc1c(Br)cc(C(O)CN)cc1Br)[C@@H]2O (stereo partly drawn) [PSAMMAPLYSIN B] was tested. Which IC50 did it give?
Answer: The IC50 was 6 µg/mL (≈ 8.01 µM).

Question: How did the IC50 turn out when COC1=C(Br)C[C@]2(OC=C1Br)ON=C(C(=O)NCCCOc1c(Br)cc(CCN)cc1Br)[C@@H]2O [PSAMMAPLYSIN A] was run?
Answer: The IC50 was 6 µg/mL (≈ 8.19 µM).

Question: Which IC50 does the source give for CNCC(O)c1cc(Br)c(OCCCNC(=O)C2=NO[C@@]3(CC(Br)=C(OC)C(Br)=CO3)[C@H]2O)c(Br)c1 (stereo partly drawn) [PSAMMAPLYSIN C] here?
Answer: Its IC50 is 3 µg/mL (≈ 3.93 µM).
